The target in the experiment is Metallo-beta-lactamase type 2 (Klebsiella pneumoniae, UniProt C7C422). Put plainly: Binding affinity to bacterial NDM-1 (unknown origin) assessed as inhibition constant.
Sequence of Metallo-beta-lactamase type 2 (C7C422 whole entry): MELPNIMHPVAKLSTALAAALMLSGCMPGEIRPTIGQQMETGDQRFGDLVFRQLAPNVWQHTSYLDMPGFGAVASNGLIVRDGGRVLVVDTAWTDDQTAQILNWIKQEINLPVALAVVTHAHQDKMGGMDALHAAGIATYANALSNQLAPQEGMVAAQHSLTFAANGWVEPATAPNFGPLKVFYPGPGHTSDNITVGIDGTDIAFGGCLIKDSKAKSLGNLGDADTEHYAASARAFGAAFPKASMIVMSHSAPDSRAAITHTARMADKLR

Consider `CN1CCN(C(=S)N/N=C/c2ccccc2O)CC1`, for which the Ki came to 0.44 nM.

(Values after BindingDB's records for doi:10.1039/d3md00036b (n/a, 2023).)
